Reference: US7691838B2, “Method for treating diseases using HSP90-inhibiting agents in combination with antimitotics” (Kosan Biosciences Incorporated, priority 2003, dated 2010)
Read-outs that look alike come from different tables or passages of the source.

Columns and labels:
breast cancer cells = conditions: cited from earlier work
[1] = clinical trials, cited from earlier work
[2] = on administration; background statement; cited from earlier work
[3] = system: ErbB2-expressing cancer cells; conditions: ErbB2-expressing cancer cells in vitro; Citri et al. 2002; cited from earlier work
[4] = system: DLD-1 cells (human colorectal cancer cells); assay: MTS cell viability drug combination assay, combination index, DLD-1; type: cell-based; conditions: CI<1 synergism
Protocol: (§1) Human colon adenocarcinoma cell line, DLD-1, and human breast adenocarcinoma cell line, SKBr-3, were obtained from American Type Culture Collection (manassas, Va.). DLD-1 cells were maintained in RPMI 1640 medium supplemented with 10% fetal bovine serum, and SKBr-3 cells were cultured in McCoy's 5a medium supplemented with 10% fetal bovine serum. 17-DMAG and 17-AAG were obtained using published procedures. Other cytotoxic agents were purchased commercially from suppliers such as Sigma Chemical Co. (St. Louis, Mo.) and Sequoia Research Products (Oxford, UK).
(§2) Cells were seeded in duplicate in 96-well microtiter plates at a density of 5,000 cells per well and allowed to attach overnight. Cells were treated with 17-AAG or 17-DMAG and the corresponding antimitotic at varying concentrations, ranging from 0.5 picomolar (“pM”) to 50 micromolar (“μM”), for 3 days. Cell viability was determined using the MTS assay (Promega). For the drug combination assay, cells were seeded in duplicate in 96-well plates (5,000 cells/well). […] Based on the IC50 values of each individual drug, combined drug treatment was designed at constant ratios of two drugs, i.e., equivalent to the ratio of their IC50. Two treatment schedules were used: In one schedule, the cells were exposed to 24 hours of 17-AAG or 17-DMAG. The drug was then added to the cells and incubated for 48 hours. In another schedule, cells were exposed to the drug alone for 24 hours followed by addition of 17-AAG or 17-DMAG for 48 hours. Cell viability was determined by the MTS assay.
(§3) Synergism, additivity or antagonism was determined by median effect analysis using the combination index (CI) calculated using Calcusyn (Biosoft, Cambridge, UK). The combination index is defined as follows: CI=[D]1/[Dx]1+[D]2/[Dx]2
(§4) The quantities [D]1 and [D]2 represent the concentrations of the first and second drug, respectively, that in combination provide a response of x % in the assay. The quantities [Dx]1 and [Dx]2 represent the concentrations of the first and second drug, respectively, that when used alone provide a response of x % in the assay. Values of CI<1, CI=1, and CI>1 indicated drug-drug synergism, additivity, and antagonism respectively (Chou and Talalay 1984). The “enhancing” effect of two drugs can also be determined.
“Pre-administration” refers to the administration of 17-AAG to the cells before the administration of antimitotic; “post-administration” refers to the administration of 17-AAG to the cells after the administration of antimitotic.

[5] = system: SKBr-3 cells (human breast cancer cells); assay: MTS cell viability drug combination assay, combination index, SKBr-3; type: cell-based; conditions: CI<1 synergism
Protocol: as §1, §2, §3, §4

[6] = 17-AAG Post-Administration (antimitotic 24 h, then 17-AAG 48 h)
[7] = 17-AAG Pre-Administration (17-AAG 24 h, then antimitotic 48 h)

Row | Compound | CI value (combination index) of antimitotic with 17-AAG [4, 6] | CI value (combination index) of antimitotic with 17-AAG [4, 7] | CI value (combination index) of antimitotic with 17-AAG [5, 6] | CI value (combination index) of antimitotic with 17-AAG [5, 7] | also measured
1 | C=CCNC1=C2C[C@@H](C)C[C@H](OC)[C@H](O)[C@@H](C)/C=C(\C)[C@H](OC(N)=O)[C@@H](OC)/C=C\C=C(/C)C(=O)NC(=CC1=O)C2=O [17-AAG, 17-allylamino-17-desmethoxygeldanamycin] | – | – | – | – | sensitization of cells to cytotoxic effects of other drugs (breast cancer cells; cells in culture, Münster et al. 2001): sensitizes cells in culture to the cytotoxic effects of Paclitaxel and doxorubicin; MTD (maximum tolerated dose) ([1]; daily×5 schedule): about 40 mg/m^2; MTD (maximum tolerated dose) ([1]; once-weekly regimen): about 308 mg/m^2; MTD (maximum tolerated dose) ([1]; twice-weekly regimen): about 220 mg/m^2; hepatotoxicity [2]: reduced hepatotoxicity
2 | C=CC(=O)Nc1cc2c(Nc3ccc(F)c(Cl)c3)ncnc2cc1OCCCN1CCOCC1 [CI-1033] | – | – | – | – | combination effect on growth, with anti-ErB2 antibody Herceptin [3]: antagonistic effect
3 | CC(=O)O[C@@]12CO[C@@H]1C[C@H](O)[C@@]1(C)C(=O)[C@H](O)C3=C(C)[C@@H](OC(=O)[C@H](O)[C@@H](NC(=O)OC(C)(C)C)c4ccccc4)C[C@@](O)([C@@H](OC(=O)c4ccccc4)[C@H]21)C3(C)C [Docetaxel, docetaxel] | 0.29 ± 0.12 | 0.79 ± 0.15 | 0.59 ± 0.26 | 0.53 ± 0.11 | –
4 | C/C1=C/C[C@@H](/C(C)=C/c2csc(C)n2)OC(=O)C[C@H](O)C(C)(C)C(=O)[C@H](C)[C@@H](O)[C@@H](C)CCC1 [Epothilone D, epothilone D] | 0.61 ± 0.12 | 0.84 ± 0.06 | 0.58 ± 0.009 | 0.72 ± 0.07 | –
5 | CC[C@]1(O)C[C@@H]2CN(CCc3c([nH]c4ccccc34)[C@@](C(=O)OC)(c3cc4c(cc3OC)N(C)[C@H]3[C@@](O)(C(=O)OC)[C@H](OC(C)=O)[C@]5(CC)C=CCN6CC[C@]43[C@@H]65)C2)C1 [Vinblastine, vinblastine] | 0.38 ± 0.11 | 0.92 ± 0.3 | 0.68 ± 0.41 | 0.39 ± 0.03 | –
6 | CC[C@]1(O)C[C@H]2CN(CCc3c([nH]c4ccccc34)[C@@](C(=O)OC)(c3cc4c(cc3OC)N(C=O)[C@H]3[C@@](O)(C(=O)OC)[C@H](OC(C)=O)[C@]5(CC)C=CCN6CC[C@]43[C@@H]65)C2)C1 [Vincristine, vincristine] | 0.42 ± 0.08 | 0.96 ± 0.3 | 0.99 ± 0.73 | 0.67 ± 0.37 | –
7 | CC[C@]1(O)C[C@@H]2CN(CCc3c([nH]c4ccccc34)[C@@](C(=O)OC)(c3cc4c(cc3OC)N(C)[C@H]3[C@@](O)(C(N)=O)[C@H](O)[C@]5(CC)C=CCN6CC[C@]43[C@@H]65)C2)C1 [Vindesine, vindesine] | 0.68 ± 0.08 | 0.91 ± 0.41 | – | – | –
8 | COC1=C2C[C@@H](C)C[C@H](OC)[C@H](O)[C@@H](C)/C=C(\C)[C@H](OC(N)=O)[C@@H](OC)/C=C\C=C(/C)C(=O)NC(=CC1=O)C2=O [geldanamycin, Geldanamycin] | – | – | – | – | combination effect on growth, co-administration with CI-1033 [3]: additive effect; hepatotoxicity [2]: unacceptable hepatotoxicity
9 | CC(=O)O[C@H]1C(=O)[C@@]2(C)[C@H]([C@H](OC(=O)c3ccccc3)[C@]3(O)C[C@H](OC(=O)[C@H](O)[C@@H](NC(=O)c4ccccc4)c4ccccc4)C(C)=C1C3(C)C)[C@]1(OC(C)=O)CO[C@@H]1C[C@@H]2O [paclitaxel] | – | – | – | – | apoptosis, combination with 17-AAG (breast cancer cells; coincident treatment with paclitaxel and 17-AAG, retinoblastoma protein-producing cells): synergistic apoptosis; apoptosis, combination with 17-AAG (breast cancer cells; paclitaxel followed by 17-AAG 4 hours later): synergistic effect similar to coincident treatment; apoptosis, combination with 17-AAG (breast cancer cells; pretreatment with 17-AAG followed by paclitaxel): abrogation of apoptosis
